# Reference: patent US8653236B2, “Therapeutic agents” (Inter-K Pty Limited, priority 2008, dated 2014)
# “Also recorded” adds a separate entry of the source. No end group written: not given here.
# What was measured:
# Format in all cases: cell-based
# [1] = test system: HT29 human colorectal adenocarcinoma cells; assay: MTT cell proliferation assay, serum-free; settings: absence of serum, 72 hour MTT assay, FIG. 5c
# Method: (§1) HT29 (colorectal adenocarcinoma) (ATCC HTB-38; Manassas, Va.). SW480 colon carcinoma cells (ATCC) and MKN45 gastric carcinoma cells (Cancer Research Laboratory, University of New South Wales, Sydney, Australia) were maintained in DMEM (Invitrogen, Carlsbad, Calif.) containing 10% heat inactivated, filtered, fetal bovine serum (FBS; Invitrogen) and 20 mM HEPES buffer. Cell culture was carried out in an incubator set at 37° C. in 5% CO2 in air. Cells were grown to approximately 80% confluence in tissue culture flasks before being recovered from the substrate by trypsinisation. Briefly, resident culture media was removed and cells washed twice with sterile phosphate-buffered saline solution. A volume of 10× trypsin in EDTA (to provide 0.5% trypsin w/w) was added in sufficient quantity to cover the cells. When cells had sufficiently detached from the substrate, trypsin activity was stopped by the addition of 10% FBS in DMEM. Detached cells were transferred to a conical sterile tube and the suspended cells passaged ten times up and down through a 10 ml pipette to produce a single cell suspension suitable for counting. The number of viable cells was determined using a viability stain (Trypan blue) and counting using a haemocytometer.
# (§2) The MTT cell proliferation assay measures cell proliferation rate and, in instances where cell viability is compromised, the assay indicates a comparative reduction in cell viability.
# (§3) Single cell suspensions of viable trypsinised cells were seeded into 96-well tissue culture plates at a density of 2×10^3 cells per well in a volume of 100 ul of culture media with or without serum. A set of triplicate wells was prepared for each concentration of compound being tested. […]
# (§4) Appropriate concentrations of compound were prepared by dilution of freshly prepared sterile 1 mM stock solutions in normal saline into cell culture media to give a final culture-well volume of 200 ul. […] Plates were gently vortexed to complete solubilisation of crystalline material and absorbance read at 540 nm using a microplate reader. […]
# [2] = test system: SW480 human colon carcinoma cells; assay: MTT cell proliferation assay, serum-containing; settings: presence of serum, 48 hour MTT assay, FIG. 6
# Method: as §1, with “Detached cells were transferred to a conical sterile tube and the suspended cells passaged ten times up and down through a 10 ml pipette to produce a single cell suspension suitable for counting.” left out, “haemocytometer. […]” for “haemocytometer.”
# as §4
# [3] = test system: MKN45 human gastric carcinoma cells; assay: MTT cell proliferation assay, serum-containing; settings: presence of serum, 48 hour MTT assay, FIG. 6
# Method: as §1, with “Detached cells were transferred to a conical sterile tube and the suspended cells passaged ten times up and down through a 10 ml pipette to produce a single cell suspension suitable for counting.” left out, “haemocytometer. […]” for “haemocytometer.”
# as §4
# [4] = test system: HT29 human colorectal adenocarcinoma cells; assay: MTT cell proliferation assay, serum-containing
# Method: as §1, §2, §3, §4
substance,measurement,setting,value
"H-DDVRRRVQQETTGH-COOH (H-DDVRRRVQQETTGH-OH) [14C, 14 mer derivative of 22C containing the TAT-like motif]",inhibition of growth of HT29 colon cancer cells,[1],inhibited the growth
DDVRRRVQQETTGHRGRAKDPL (listed as Brevibacterium linens) [22C],inhibition of proliferation of SW480 cells,[2],inhibit proliferation of SW480 and MKN45 cells to a similar degree as for HT29 cells
same,inhibition of proliferation of MKN45 cells,[3],inhibit proliferation of SW480 and MKN45 cells to a similar degree as for HT29 cells
same,depression of in vitro cell proliferation of colon cancer cells,"[4]; MTT assay containing serum (24 hour assay), concentration of 35 uM, FIG. 5d",up to 54%
same,effectiveness compared with other peptides,"[4]; serum-supplemented culture media, FIG. 5d and FIG. 5a",more effective than peptide 14C and peptide 8C; also recorded: more effective than the 24-NH2 peptide
same,inhibition of growth of HT29 colon cancer cells,[1],inhibited the growth
"24-NH2: peptide consisting of amino acids 266-289 of GenBank Accession No. O68604; extended version of peptide 22C, synthesized and amidated (DDVRRRVQQETTGHRGRAKDPLYR-NH2; listed as Brevibacterium linens)",depression of in vitro cell proliferation of colon cancer cells,"[4]; MTT assay (72 hours), serum-containing, concentration of 50 μM, FIG. 5a",up to 36%
RGRAKDPL [8C],inhibition of growth of HT29 colon cancer cells,[1],inhibited the growth
